Results from patent publication EP0802730B1, “PESTICIDAL COMPOUNDS” (BTG INTERNATIONAL LIMITED, priority 1995, dated 1996).
Values after ≈ are worked out from the molar mass of the structure shown. Like-named read-outs stand apart in the source and are kept apart here.

Tests used:
[1] = tested on: Mites (TU) (Tetranychus urticae), susceptible strain (GSS); assay: Mite immersion test, susceptible strain GSS; format: in vivo
Experimental: (§1) 25 adult female mites were immersed in 35 µl of a solution of the test compound in a 1:4 acetone-water mixture for 30 seconds. The treated insects were maintained at 21° ± 2°C and kill was assessed 72 hours after treatment. […] Three replicates of 25 mites each were used at each dose rate and 5 or 6 dose rates were used per compound under test. LC50 values were calculated in ppm of the solution of the test compound per insect. The test was carried out using a susceptible strain of mites (GSS) supplied by Schering, AG, Berlin.

[2] = tested on: Myzus persicae, susceptible strain (US1L); assay: Aphid dip test, susceptible strain; format: in vivo
Experimental: Activity against resistant (R) and susceptible (S) strains of aphid (Myzus persicae) was assessed using the following method.
Entrapment rings of fluon were painted halfway up the inside of 4 cm lengths of glass tubing (1.5 cm diameter), and squares of insect-proof gauze were attached to one end of each tube by elastic bands. Fifteen apterous adults were then gently transferred into the tubes using a sable-hair brush, and the tube sealed with a second gauze square.
Tubes containing aphids were dipped into insecticide solutions for 10 seconds, dried on blotting paper, and then inverted and tapped to cause treated aphids to fall to the unimmersed end of each tube. Handling mortality (usually zero or very slight) was scored after 1 hour, when aphids were transferred onto chinese cabbage leaf-discs (35 mm diameter) on an agar bed (25 mm in depth) in disposible plastic containers (30 mm high) and confined by applying a ring of fluon to the exposed lip of the container. Containers were store upright, without lids, in a constant environment facility maintained at 25°C under continuous room lighting. Mortality was assessed at 24, 48 and 72 hours. Two replicates of 15 aphids each were used at each dose rate and 5 or 6 dose rates were used per compound under test.
The test was carried out using a susceptible strain of aphids (US1L) collected in the field in East Anglia, UK and an extremely resistant strain of aphids (794Jz) (R3 esterase, sensitive AChE) collected from glasshouses in the UK.
The values given are % mortality corrected for control data. The control comprised the test solution without active ingredient.

[3] = tested on: Whitefly (BT) (Bemisia tabaci), susceptible strain (SUD-S); assay: Whitefly residual film vial test, susceptible strain SUD-S; format: in vivo
Experimental: Acetone solutions (0.100 ml) of the test compounds were placed in 10 ml glass vials and evaporated with rotation to deposit a film of the compound. Thirty adult whiteflies were placed inside the vial, then after 60 minutes, the treated insects were transferred onto untreated cotton leaf discs which were kept moist on a bed of agar gel. The temperature was maintained at 25°C and mortality assessed after 48 hours. Three replicates were used at each of 5 to 7 dose levels per compound.

[4] = tested on: Mustard beetles (PC) (Phaedon cochleariae Fab); format: in vivo; conditions: NA = lack of detectable activity; for PC LD50 (µg/insect): Tables 10, 13, 14; for PC (LD50): 1 µl acetone drop applied ventrally to adults, kill at 48 hours
Experimental: A one microlitre drop of an acetone solution of the test compound was applied ventrally to adult mustard beetles using a micro drop applicator. The treated insects were maintained for 48 hours after which time kill was assessed. Two replicates each of 20 to 25 mustard beetles were used at each dose level and 5 dose levels were treated comparably. LD50 values were calculated as for houseflies.

[5] = tested on: Houseflies (MD) (Musca domestica); format: in vivo; conditions: for MD LD50 (µg/insect): Tables 10, 13, 14, NA = lack of detectable activity; for MD (LD50): topical 1 µl drop in acetone on female flies, kill assessed 24 and 48 hours
Experimental: Female flies were treated on the thorax with a one microlitre drop of test compound dissolved in acetone. Two replicates of 15 flies were used at each dose rate and 6 dose rates were used per compound under test. After treatment, the flies were maintained at a temperature of 20° ± 1°C and kill was assessed 24 and 48 hours after treatment. LD50 values were calculated in micrograms of test compound per fly (see Sawicki et al., Bulletin of the World Health Organisation, 35, 893 (1966) and Sawicki et al., Entomologia and Exp. Appli 10, 253, (1967).

[6] = tested on: Pyricularia oryzae (=Magnaporthe grisea); format: cell-based; conditions: P. oryzae, 7 days
Rhizoctonia solani = assay: Fungitoxicity in vitro on potato dextrose agar; format: cell-based; conditions: R. solani, 4 days
[7] = tested on: resistant mites (TU) (Tetranychus urticae), NYR-Bif-1000; assay: Mite immersion test, bifenthrin-resistant strain; format: in vivo; conditions: 72 h, read-out: TU (NYR-Bif-1000) (LC50)
Experimental: as §1
The test of Example 16 (TU(GSS)) was repeated using a strain of mites which is resistant to bifenthrin (NYR-Bif-1000). The NYR-Bif-1000 strain was provided by the Department of Entomology, Cornell University, New York.

Aspergillus niger = assay: Fungitoxicity in vitro on potato dextrose agar; format: cell-based; conditions: A. niger, 4 days
[8] = tested on: Diamond-back moth (PX) (Plutella xylostella); assay: Diamond-back moth larvae topical test (failure to pupate); format: in vivo; conditions: fifth instar larvae, 0.5 µl drop; failure to pupate 5 days later
Experimental: Fifth instar larvae were treated with a 0.5 µl drop of test compound in acetone. Three replicates of 10 larvae each were used at each dose rate and 5 dose rates were used per compound under test. After treatment, the larvae were maintained at about 22°C, and kill was assessed as failure to pupate 5 days later. LD50 values were calculated as for houseflies.

[9] = 72 h, Tables 10, 13, 14, susceptible strain, NA = lack of detectable activity, read-out: TU LC50 (ppm/insect)
[10] = 48 h, Tables 10, 13, 14, susceptible strain, NA = lack of detectable activity, read-out: BT LC50 (ppm/insect)
[11] = ppm solution of test compound, 30 seconds immersion, kill at 72 hours, read-out: TU(GSS) (LC50)
[12] = strain S, 100 PPM, read-out: % mortality corrected for control data
[13] = strain S, read-out: % mortality corrected for control data
[14] = ppm solution of test compound, 60 minutes film exposure, mortality after 48 hours, read-out: BT(SUD-S) (LC50)

SMILES	LC50 [1, 9] [µg/mL]	mortality at 100 ppm ([2]; read-out: MP % kill 100 ppm) [%]	LC50 [3, 10] [µg/mL]	PC LD50 (µg/insect) [4]	MD LD50 (µg/insect) [5]	further results
CCCCCCC1=C(O)C(=O)c2ccccc2C1=O [-(CH2)5CH3, reference compound]	170 (≈ 658 µM)	0	9.4 (≈ 36.4 µM)	c7 µg/insect	c20 µg/insect	–
COC(=O)Nc1nc2ccccc2[nH]1 [Carbendazim, carbendazim, reference compound]	–	–	–	–	–	% inhibition of growth in colony diameter in agar plates, Activity at 1 mg 1^-1 ([6]; 1 mg 1^-1): 14.7%; % inhibition of growth in colony diameter in agar plates, Activity at 5 mg 1^-1 ([6]; 5 mg 1^-1): 99.8%; % inhibition of growth in colony diameter in agar plates, Activity at 1 mg 1^-1 (Rhizoctonia solani; 1 mg 1^-1): 3.3%; % inhibition of growth in colony diameter in agar plates, Activity at 5 mg 1^-1 (Rhizoctonia solani; 5 mg 1^-1): 82.4%
CCC(C)(C)C1=C(O)C(=O)c2ccccc2C1=O [Example 1, 2-(1,1-dimethylpropyl)-3-hydroxynaphthalene-1,4-dione]	–	–	–	–	–	LC50 [7]: 84 µg/mL (≈ 344 µM); LC50 [1, 11]: 39 µg/mL (≈ 160 µM); mortality at 100 ppm [2, 12]: 11%; mortality at 250 ppm [2, 13]: 26%; % inhibition of growth in colony diameter in agar plates, Activity at 100 mg 1^-1 (Aspergillus niger): 63%; % inhibition of growth in colony diameter in agar plates, Activity at 100 mg 1^-1 [6]: 100%; % inhibition of growth in colony diameter in agar plates, Activity at 100 mg 1^-1 (Rhizoctonia solani): 95%; LC50 [3, 14]: 19 µg/mL (≈ 77.8 µM); PC (LD50) [4]: c. 10 µg/insect; MD (LD50) [5]: < 10 µg/insect
CCC(C)(C)C1=C(OC(C)=O)C(=O)c2ccccc2C1=O [Example 2, 2-(1,1-dimethylpropyl)-3-ethanoyloxy-naphthalene-1,4-dione]	–	–	–	–	–	LC50 [7]: 83 µg/mL (≈ 290 µM); PX (LD50) [8]: c. 10 µg/insect; LC50 [1, 11]: 64 µg/mL (≈ 224 µM); mortality at 40 ppm ([2]; strain S, 40 PPM, read-out: % mortality corrected for control data): 20%; mortality at 250 ppm [2, 13]: 27%; % inhibition of growth in colony diameter in agar plates, Activity at 100 mg 1^-1 (Aspergillus niger): 38%; % inhibition of growth in colony diameter in agar plates, Activity at 100 mg 1^-1 [6]: 89%; % inhibition of growth in colony diameter in agar plates, Activity at 100 mg 1^-1 (Rhizoctonia solani): 81%; LC50 [3, 14]: 4.8 µg/mL (≈ 16.8 µM); PC (LD50) [4]: c. 6.0 µg/insect; MD (LD50) [5]: < 10 µg/insect
CC(C)(C)C1=C(O)C(=O)c2ccccc2C1=O [Example 3, 2-(t-butyl)-3-hydroxy-naphthalene-1,4-dione]	–	–	–	–	–	PX (LD50) [8]: c. 8.0 µg/insect; LC50 [1, 11]: 81 µg/mL (≈ 352 µM); mortality at 100 ppm [2, 12]: 27%; mortality at 250 ppm [2, 13]: 87%; % inhibition of growth in colony diameter in agar plates, Activity at 100 mg 1^-1 (Aspergillus niger): 61%; % inhibition of growth in colony diameter in agar plates, Activity at 100 mg 1^-1 [6]: 100%; % inhibition of growth in colony diameter in agar plates, Activity at 100 mg 1^-1 (Rhizoctonia solani): 92%; LC50 [3, 14]: 8 µg/mL (≈ 34.7 µM); PC (LD50) [4]: c. 6.0 µg/insect; MD (LD50) [5]: c. 2.5 µg/insect
C=CC(C)(C)C1=C(OC(=O)CCCCCCCCC)C(=O)c2ccccc2C1=O [Example 8]	–	–	–	–	–	PX (LD50) [8]: c. 0.1 µg/insect; LC50 [1, 11]: 630 µg/mL (≈ 1590 µM); PC (LD50) [4]: c. 8.0 µg/insect
C=CC(C)(C)C1=C(OCc2ccccc2)C(=O)c2ccccc2C1=O [Example 13]	–	–	–	–	–	PX (LD50) [8]: c. 8.0 µg/insect; LC50 [1, 11]: > 1000 µg/mL; LC50 [3, 14]: > 1000 µg/mL; PC (LD50) [4]: > 20 µg/insect; MD (LD50) [5]: > 20 µg/insect
CC1(C2=C(O)C(=O)c3ccccc3C2=O)C=CCCC1 (stereo not shown) [Example 31]	~50 (≈ 186 µM)	5	4.7 (≈ 17.5 µM)	5 µg/insect	6 µg/insect	–
CC1(CC2=C(O)C(=O)c3ccccc3C2=O)CCCCC1 [Example 32, 2-hydroxy-3-((1'methylcyclohexyl)-methyl)-naphthalene-1,4-dione]	2.9 (≈ 10.2 µM)	50	3.6 (≈ 12.7 µM)	<2 µg/insect	3.6 µg/insect	–
CC(=O)OC1=C(CC2(C)CCCCC2)C(=O)c2ccccc2C1=O [Example 33, 2-acetoxy-3-((1'-methylcyclohexyl)-methyl)-naphthalene-1,4-dione]	2.3 (≈ 7.05 µM)	30	5.1 (≈ 15.6 µM)	2.8 µg/insect	5.7 µg/insect	–
CC(C)(C)CCCCC1=C(O)C(=O)c2ccccc2C1=O [Example 38, 2-(5,5-dimethylhexyl)-3-hydroxy-naphthalene-1,4-dione]	3.5 (≈ 12.2 µM)	~100	~60 (≈ 210 µM)	c8 µg/insect	5.3 µg/insect	–
CC(C)(C)CCCCCC1=C(O)C(=O)c2ccccc2C1=O [Example 39]	9.6 (≈ 32 µM)	~100	21 (≈ 69.9 µM)	–	c5 µg/insect	–
CC(C)(C)CCCCCCC1=C(O)C(=O)c2ccccc2C1=O [Example 40]	5 (≈ 15.9 µM)	~100	13 (≈ 41.3 µM)	–	c5 µg/insect	–
CC(C)(C)C=CCCCCC1=C(O)C(=O)c2ccccc2C1=O [Example 44, 2-(7,7-dimethyloct-5-enyl)-3-hydroxy-naphthalene-1,4-dione]	4.3 (≈ 13.8 µM)	~100	~100 (≈ 320 µM)	–	c10 µg/insect	–
CC(=O)OC1=C(C(C)(C)C)C(=O)c2ccccc2C1=O [Example 46]	~500 (≈ 1840 µM)	~60	–	c15 µg/insect	2.3 µg/insect	–
CC(=O)OC1=C(CCC(C)(C)C)C(=O)c2ccccc2C1=O [Example 47, 2-ethanoyloxy-3-(3,3-dimethylbutyl)-naphthalene-1,4-dione]	~20 (≈ 66.6 µM)	~100	2.1 (≈ 6.99 µM)	c1 µg/insect	2.2 µg/insect	–
CC(=O)OC1=C(CCCCCCC=CCC(C)(C)C)C(=O)c2ccccc2C1=O [Example 49, 2-ethanoyoxy-3-(10,10-dimethylundecan-7-enyl)-naphthalene-1,4-dione]	2.3 (≈ 5.8 µM)	~15	–	c10 µg/insect	c18 µg/insect	–
CCCN(CCOc1c(Cl)cc(Cl)cc1Cl)C(=O)n1ccnc1 [Prochloraz, prochloraz, reference compound]	–	–	–	–	–	% inhibition of growth in colony diameter in agar plates, Activity at 1 mg 1^-1 (Aspergillus niger; 1 mg 1^-1): 97.8%
